Measured values reported in ChEMBL document CHEMBL1201862, “PubChem BioAssay data set” (2004).
Calls of active or inactive are those of the source.

Experiments:
Format in all cases: functional
[1] = target: T1, Replicative DNA helicase DnaB (Mycobacterium tuberculosis, UniProt P9WMR3); assay: DnaB intein splicing inhibitors, dose response, biochemical, cell-free fluorescence (AID 449749)
T1 sequence (P9WMR3 whole entry): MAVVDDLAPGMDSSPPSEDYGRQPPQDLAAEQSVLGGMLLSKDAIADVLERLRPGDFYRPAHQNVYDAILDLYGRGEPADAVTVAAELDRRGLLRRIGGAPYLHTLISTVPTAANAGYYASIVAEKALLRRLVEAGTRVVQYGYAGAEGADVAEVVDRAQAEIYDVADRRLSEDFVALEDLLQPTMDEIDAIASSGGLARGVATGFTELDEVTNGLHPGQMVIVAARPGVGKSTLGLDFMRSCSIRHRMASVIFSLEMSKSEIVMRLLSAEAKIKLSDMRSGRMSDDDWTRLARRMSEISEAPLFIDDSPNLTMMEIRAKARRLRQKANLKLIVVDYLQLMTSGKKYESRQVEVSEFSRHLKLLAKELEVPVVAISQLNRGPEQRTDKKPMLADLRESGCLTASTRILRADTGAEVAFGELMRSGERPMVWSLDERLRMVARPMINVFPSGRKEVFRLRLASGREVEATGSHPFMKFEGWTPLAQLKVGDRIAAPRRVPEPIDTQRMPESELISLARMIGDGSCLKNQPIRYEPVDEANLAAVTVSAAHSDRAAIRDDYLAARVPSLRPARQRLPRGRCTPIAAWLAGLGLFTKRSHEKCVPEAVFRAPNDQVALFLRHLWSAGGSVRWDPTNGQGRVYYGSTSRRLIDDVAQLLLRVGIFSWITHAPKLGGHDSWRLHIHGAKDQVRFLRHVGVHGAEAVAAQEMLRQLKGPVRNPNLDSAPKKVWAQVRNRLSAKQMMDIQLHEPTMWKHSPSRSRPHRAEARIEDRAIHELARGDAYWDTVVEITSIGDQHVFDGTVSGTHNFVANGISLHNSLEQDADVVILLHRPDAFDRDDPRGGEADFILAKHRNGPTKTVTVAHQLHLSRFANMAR

Protein RecA = target: T2, Protein RecA (Mycobacterium tuberculosis, UniProt P9WHJ3); assay: Fluorescence Cell-Free Homogeneous Dose Retest to Identify Inhibitors of RecA-Intein Splicing Activity. [Related pubchem assays (depositor defined):AID2097, AID2223, AID489010, AID492950]
T2 sequence (P9WHJ3 whole entry): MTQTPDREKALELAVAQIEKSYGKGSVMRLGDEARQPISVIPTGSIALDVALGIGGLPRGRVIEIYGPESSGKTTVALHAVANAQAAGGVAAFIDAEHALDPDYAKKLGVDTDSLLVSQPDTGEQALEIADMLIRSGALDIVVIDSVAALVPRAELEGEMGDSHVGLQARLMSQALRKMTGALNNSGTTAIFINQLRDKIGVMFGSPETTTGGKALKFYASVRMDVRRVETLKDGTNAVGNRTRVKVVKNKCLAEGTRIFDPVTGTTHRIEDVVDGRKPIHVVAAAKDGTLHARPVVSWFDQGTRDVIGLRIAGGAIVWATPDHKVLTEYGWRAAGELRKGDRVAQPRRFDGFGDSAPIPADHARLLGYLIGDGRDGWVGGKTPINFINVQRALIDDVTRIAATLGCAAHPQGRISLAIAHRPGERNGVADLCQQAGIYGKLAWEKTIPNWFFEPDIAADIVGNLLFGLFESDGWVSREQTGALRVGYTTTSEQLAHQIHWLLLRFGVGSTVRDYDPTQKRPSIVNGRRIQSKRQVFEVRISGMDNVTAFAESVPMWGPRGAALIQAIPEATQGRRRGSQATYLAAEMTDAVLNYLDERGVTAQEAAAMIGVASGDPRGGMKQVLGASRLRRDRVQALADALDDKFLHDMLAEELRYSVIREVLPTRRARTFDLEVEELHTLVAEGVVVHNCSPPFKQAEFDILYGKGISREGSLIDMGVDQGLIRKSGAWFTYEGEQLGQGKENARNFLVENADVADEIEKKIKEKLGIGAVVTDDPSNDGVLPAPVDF

[2] = target: Matrix metalloproteinase-14 (Homo sapiens, UniProt P50281); assay: Dose Response confirmation of uHTS hits for a small molecule inhibitors of MT1-MMP activation in a fluorescence assay set 1.
[3] = target: T3, Sentrin-specific protease 6 (Homo sapiens, UniProt Q9GZR1);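 also: Luminescence-based dose-response confirmatory assay of SENP6 inhibition, following up an ultra-high-throughput screen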
T3 sequence (Q9GZR1 whole entry): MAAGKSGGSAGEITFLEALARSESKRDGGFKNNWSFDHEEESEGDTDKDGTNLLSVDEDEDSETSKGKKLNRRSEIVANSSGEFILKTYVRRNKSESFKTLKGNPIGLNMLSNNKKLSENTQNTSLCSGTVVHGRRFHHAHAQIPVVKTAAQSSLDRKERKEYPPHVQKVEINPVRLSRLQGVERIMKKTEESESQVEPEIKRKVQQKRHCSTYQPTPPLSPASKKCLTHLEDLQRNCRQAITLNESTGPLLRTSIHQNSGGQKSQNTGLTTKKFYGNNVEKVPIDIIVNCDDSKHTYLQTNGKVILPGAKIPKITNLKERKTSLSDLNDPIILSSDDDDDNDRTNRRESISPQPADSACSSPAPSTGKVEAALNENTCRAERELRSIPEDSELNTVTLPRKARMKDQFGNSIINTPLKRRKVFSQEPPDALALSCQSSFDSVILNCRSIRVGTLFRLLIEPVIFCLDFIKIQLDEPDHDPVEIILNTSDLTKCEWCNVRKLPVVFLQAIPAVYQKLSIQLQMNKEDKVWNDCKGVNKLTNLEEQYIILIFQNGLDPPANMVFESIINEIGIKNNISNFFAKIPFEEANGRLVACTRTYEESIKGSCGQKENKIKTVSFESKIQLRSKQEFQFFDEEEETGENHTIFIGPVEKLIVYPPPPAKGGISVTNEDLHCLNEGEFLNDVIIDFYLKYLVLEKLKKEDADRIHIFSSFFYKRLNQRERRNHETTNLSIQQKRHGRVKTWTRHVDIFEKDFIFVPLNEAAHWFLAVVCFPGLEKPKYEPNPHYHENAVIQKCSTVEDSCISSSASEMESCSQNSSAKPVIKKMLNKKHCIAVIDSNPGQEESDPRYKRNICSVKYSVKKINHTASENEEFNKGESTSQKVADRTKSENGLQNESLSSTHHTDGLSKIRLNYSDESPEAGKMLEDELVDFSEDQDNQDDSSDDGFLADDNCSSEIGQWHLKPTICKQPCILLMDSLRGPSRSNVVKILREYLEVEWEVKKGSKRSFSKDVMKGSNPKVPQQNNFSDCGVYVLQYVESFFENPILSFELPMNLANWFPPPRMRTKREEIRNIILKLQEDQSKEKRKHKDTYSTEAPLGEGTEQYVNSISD

| Structure (SMILES) | AC50 [1] | EC50 (Protein RecA) | IC50 [2] | IC50 [3] |
| --- | --- | --- | --- | --- |
| CC1CC(C)CN(C(=O)c2ccc3c(c2NCCO)C(=O)c2ccccc2C3=O)C1 (stereo unspecified) | 14.5 µM (active) | 20 µM (active) | 69 µM (inactive) |  |
| CCC(=O)N(C1=C(NC)C(=O)c2ccccc2C1=O)C(C)C | 24.5 µM (active) | 9.21 µM (active) |  | 16.7 µM (active) |
